The results in this text go back to paper PMC3898838, “Design, Synthesis, and Biological Evaluation of an Allosteric Inhibitor of HSET that Targets Cancer Cells with Supernumerary Centrosomes” (Chemistry & Biology, 2013).

In one experiment the test system is MCF-7 cells. In words: Time-lapse microscopy, mitotic fate. It counts as cell-based, human. To be noted: MCF-7, 200 μM. As for the experimental part:
(§1) Cells were synchronized in G2-M by incubation at 37°C and 5% CO2 for 24 hr with 9 μM of the CDK1 inhibitor RO-3306 (Merck). Cells were released by removal of the RO-3306 and four washings of 10 min each, at 37°C, with prewarmed culture media + 10% FBS. N1E-115 cells were transfected with siRNA (Supplemental Experimental Procedures) and imaged from 6 hr after transfection. Some RO-3306-synchronized cells were released with 200 μM CW069, 100 μM monastrol, or 0.2% DMSO, and imaging started immediately or 1 hr after treatment. Imaging was carried out for 24 hr, or for 4 hr in the case of the CW069/monastrol cotreatment. Imaging was conducted every 5 min in a humidified chamber with 37°C and 5% CO2, using a Nikon Eclipse TE2000-E microscope, and analyzed with NIS-Elements software (Nikon, Tokyo, Japan). The morphology of cells in mitosis and the mitotic fate (bipolar division, multipolar division, or cell death) were analyzed.

Experiment [1] has as its system NHDF cells. In words: Time-lapse microscopy, mitotic fate. It is filed as cell-based, human. To be noted: 200 μM. As for the experimental part: as §1
The test system of another experiment is HeLa cells. The experiment is described as follows: Time-lapse video microscopy, mitotic duration, arrest and exit. It counts as cell-based, human. To be noted: 200 μM CW069, 100 μM monastrol. As for the experimental part: HSET is known to antagonize the activity of the related kinesin, KSP, during spindle formation ([Mountain et al., 1999]). Therefore, we used time-lapse video microscopy to investigate whether CW069-treated cells transit mitosis with normal kinetics, and whether the characteristic mitotic arrest induced by inhibition of KSP ([Mayer et al., 1999]) could be suppressed by cotreatment with CW069. To this end, HeLa cells were treated with either DMSO control (0.2%), 200 μM CW069, 100 μM monastrol, or CW069+monastrol for 60 min before being imaged every 5 min for a further 360 min. Mitotic duration (MD) was defined as the period of time between when the cells began to round up and the onset of anaphase. No statistical difference was recorded between control cells and cells treated with 200 μM CW069 (MD 55 ± 7 and 53 ± 6 min, respectively, Figures 6A, 6B, and S7). […] This effect was reversed to a large extent by cotreatment of CW069 with monastrol. […] This is consistent with observations previously reported for KSP-depleted cells ([Mountain et al., 1999]). […] Cells were synchronized in G2-M by incubation at 37°C and 5% CO2 for 24 hr with 9 μM of the CDK1 inhibitor RO-3306 (Merck). Cells were released by removal of the RO-3306 and four washings of 10 min each, at 37°C, with prewarmed culture media + 10% FBS. N1E-115 cells were transfected with siRNA (Supplemental Experimental Procedures) and imaged from 6 hr after transfection. Some RO-3306-synchronized cells were released with 200 μM CW069, 100 μM monastrol, or 0.2% DMSO, and imaging started immediately or 1 hr after treatment. Imaging was carried out for 24 hr, or for 4 hr in the case of the CW069/monastrol cotreatment. Imaging was conducted every 5 min in a humidified chamber with 37°C and 5% CO2, using a Nikon Eclipse TE2000-E microscope, and analyzed with NIS-Elements software (Nikon, Tokyo, Japan). The morphology of cells in mitosis and the mitotic fate (bipolar division, multipolar division, or cell death) were analyzed.

Another experiment concerns N1E-115 cells. The experiment is described as follows: SRB growth-inhibition assay. It is filed as cell-based. To be noted: Mus musculus, N1E-115, 72 hr, 0.3 μM to 400 μM. From the text:
(§2) We next assessed whether CW069 could selectively target proliferation in cancer cells. We used a combination of cell-growth-inhibition assays based on the Sulforhodamine-B (SRB) technique ([Vichai and Kirtikara, 2006]) and IncuCyte live-cell imaging. […] This further highlights that HSET inhibition, unlike that of KSP or CENP-E, provides a unique opportunity to selectively damage malignant cells without harming normal cells.
(§3) NHDF cells were obtained from PromoCell, and the N1E-115 and HeLa cells were obtained from ATCC/LGC Standards. The BT549, MCF-7 and MDA-MB-231 cells were kind gifts from the Caldas laboratory (CRUK Cambridge Institute) and were originally obtained from ATCC/LGC. All human cells were verified by STR genotyping and all tested negative for mycoplasma. Cells were cultured in Dulbecco’s modified Eagle’s medium (DMEM) supplemented with 10% fetal calf serum (FCS) at 37°C and 5% CO2. All compounds used in the Sulforhodamine B colorimetric (SRB) assay ([Vichai and Kirtikara, 2006]) were dissolved in DMSO and diluted in culture medium to a final concentration of 0.2% DMSO. For the SRB assay and live-cell imaging (using the IncuCyte Kinetic Live Cell Imaging System; Select Science), cells were seeded in 96-well plates at a density of 2,500 cells per well. […] Fluorescence was quantified using an Infinite 200 PRO plate-reader (Tecan) at a wavelength of 545 nm. […]

The test system of experiment [2] is NHDF cells. The experiment is described as follows: SRB growth-inhibition assay. It counts as cell-based. The conditions noted are these: Homo sapiens, 72 hr, 0.3 μM to 400 μM.
From the text: as §2, §3

Where [3] appears, read: >200 cells that entered mitosis >60 min after treatment.

Consider `O=C(O)c1cc(I)ccc1NC(=O)[C@H](Cc1ccccc1)NCc1ccccc1` [CW069], for which the bipolar division entry with MCF-7 cells is on record as “remained unaffected”. In addition, in the experiment with NHDF cells [1], the multipolar anaphase formation result was “No similar increase in multipolar anaphase formation”. Moreover, in the experiment with HeLa cells (setting [3]), the “Mitotic Arrest (%)” value is 4% and the “Mitotic Exit (%)” value is on record as 96%. The “Mitotic duration (MD)” value in the experiment on HeLa cells (rounding up to anaphase onset, cells transiting mitosis) is on record as 53 ± 6 min. For the same compound, the IC50 in the experiment on N1E-115 cells came out at 86 ± 10 µM. Also, the IC50 with NHDF cells [2] was 181 ± 7 µM.

As usually defined, the IC50 is the midpoint of a concentration-inhibition curve.
